# Source: patent publication US4486411A, “Beta-lactamase inhibiting 6-beta-sulfonyloxypenicillanic acid derivatives” (Pfizer Inc., priority 1981, dated 1984)
# Where “and” joins values, the source holds several entries; their conditions need not be identical. Identical values can stand only once. Like-named read-outs stand apart in the source and are kept apart here.
# What was measured:
# [1] = system: Enterobacter cloacae; experiment: MIC, brain heart infusion agar dilution; format: cell-based; conditions: for MIC with Ampicillin / Response with Ampicillin: 1:1 mixture with ampicillin; for MIC: Enterobacter cloacae, 18 h, alone, Table II gives two separate tests
# Description: (§1) The procedure which is followed is the one recommended by the International Collaborative Study on Antibiotic Sensitivity Testing [Ericcson and Sherris, Acta. Pathologica et Microbiologia Scandinav, Supp. 217, Sections A and B: 64-68 (1971)], and employs brain heart infusion (BHI) agar and the inocula replicating device. Overnight growth tubes are diluted 100 fold for use as the standard inoculum (20,000-10,000 cells in approximately 0.002 ml. are placed on the agar surface; 20 ml. of BHI agar/dish). Twelve 2 fold dilutions of the test compound are employed, with initial concentration of the test drug being 200 mcg./ml. Single colonies are disregarded when reading plates after 18 hrs. at 37° C. The susceptibility (MIC) of the test organism is accepted as the lowest concentration of compound capable of producing complete inhibition of growth as judged by the naked eye. The manner in which the said compounds of the formula I increase the effectiveness of a beta-lactam antibiotic can be appreciated by reference to experiments in which the MIC of a given antibiotic alone, and a compound of the formula I alone, are measured. These MIC's are then compared with the MIC values obtained with a combination of the given antibiotic and the compound of the formula I wherein R^1 is hydrogen. […] The MIC values of combinations are measured using the method described by Barry and Sabath in "Manual of Clinical Microbiology", edited by Lenette, Spaulding and Truant, 2nd Edition, 1974, American Society for Microbiology.
# (§2) Results of experiments illustrating that compounds of the formula II enhance the effectiveness of various beta-lactam antibiotics are reported in Tables I and II. […] It is obvious that the combination of compounds of the formula II with beta-lactam antibiotics will show synergistic activity against other bacterial strains, including some freshly isolated in the clinics. Determination of this activity is a matter of routine application of this type of testing.
# [2] = system: Escherichia coli 129*; experiment: MIC, brain heart infusion agar dilution; format: cell-based; conditions: for MIC with Ampicillin: 1:1 mixture with ampicillin; for MIC: Escherichia coli, 18 h, read-out: MIC Alone
# Description: as §1, §2
# [3] = system: Escherichia coli 2*; experiment: MIC, brain heart infusion agar dilution; format: cell-based; conditions: for MIC with Cefazolin: 1:1 mixture with cefazolin; for MIC: Escherichia coli, 18 h, read-out: MIC Alone
# Description: as §1, §2
# [4] = system: Escherichia coli 266; experiment: MIC, brain heart infusion agar dilution; format: cell-based; conditions: for MIC: Escherichia coli, 266, 18 h, alone, Table II gives two separate tests
# Description: as §1, §2
# [5] = system: Klebsiella pneumonia; experiment: MIC, brain heart infusion agar dilution; format: cell-based; conditions: for MIC with Ampicillin / Response with Ampicillin: 1:1 mixture with ampicillin; for MIC with Cefazolin / Response with Cefazolin: 1:1 mixture with cefazolin; for MIC: Klebsiella pneumoniae, 18 h, alone, Table II gives two separate tests
# Description: as §1, §2
# [6] = system: Proteus morgani; experiment: MIC, brain heart infusion agar dilution; format: cell-based; conditions: for MIC with Ampicillin: 1:1 mixture with ampicillin; for MIC with Cefazolin / Response with Cefazolin: 1:1 mixture with cefazolin; for MIC: 18 h, alone, Table II gives two separate tests
# Description: as §1, §2
# [7] = system: Pseudomonas aeruginosa; experiment: MIC, brain heart infusion agar dilution; format: cell-based; conditions: for MIC with Ampicillin: 1:1 mixture with ampicillin; for MIC with Cefazolin: 1:1 mixture with cefazolin; for MIC: Pseudomonas aeruginosa, 18 h, alone, Table II gives two separate tests
# Description: as §1, §2
# [8] = system: Serratia marcescens; experiment: MIC, brain heart infusion agar dilution; format: cell-based; conditions: for MIC: Serratia marcescens, 18 h, alone, Table II gives two separate tests
# Description: as §1, §2
# [9] = system: Staphylococcus aureus 400*; experiment: MIC, brain heart infusion agar dilution; format: cell-based; conditions: resistant variant
# Description: as §1, §2
# [10] = system: Staphylococcus aureus 5; experiment: MIC, brain heart infusion agar dilution; format: cell-based; conditions: for MIC with Ampicillin: 1:1 mixture with ampicillin; for MIC: 18 hrs. at 37° C., Table II gives two separate tests
# Description: as §1, §2
# [11] = biological target: Enterobacter cloacae 67B009 beta-lactamase (Enterobacter cloacae, UniProt P05364); experiment: Inhibition of cell free beta-lactamase (beta-lactam hydrolysis); format: biochemical; conditions: pH 6.5, 37° C.; for inhibition at 16.5 µM: inhibitor 16.5 μM; for inhibition at 66 µM: inhibitor 66 μM
# Description: (§3) The compounds of the present invention are also evaluated in vitro by their ability to inhibit the hydrolysis of certain beta-lactam antibiotics by beta-lactamase enzymes. The hydrolysis of ampicillin and penicillin G was determined by the microiodometric method of Novick [Biochem. J. 83, 236 (1962)].
# (§4) Cephaloridine hydrolysis was measured by following the decrease in ultraviolet absorbance at 255 nm [O'Callaghan et al., Antimicrob. Agents Chemother. 1968, pp. 57-63 (1969)]. Conditions for both assays were idential: 0.5 M potassium phosphate, pH 6.5 and 37° C. Reactions were initiated by the addition of the cell-free beta-lactamase, except in the case of preincubation experiments in which the inhibitor and enzyme were incubated together in the assay mixture for 10 minutes before initiation of the reaction by addition of substrate. With the cell-free extracts of Staphylococcus aureus, Escherichia coli, Klebsiella pneumoniae and Pseudomonas aeruginosa, the substrate was ampicillin at 33 micro M (13 microg./ml.). Typical specific activities of the beta-lactamase preparations were, respectively, 6,019, 88,970, 260 and 76 micromol/hr. per mg. of protein.
# (§5) Cell-free extracts were prepared by sonic treatment (using three 30-s bursts at 4° C. except for S. aureus, which was broken with a French press) of cultures grown in brain heart infusion on a rotary shaker incubator. For the S. aureus, P. aeruginosa, and E. cloacae strains, de novo synthesis of beta-lactamase was induced by growing a log-phase culture in the presence of a sublethal concentration of penicillin G at 100, 1,000, and 300 microg./ml, respectively, for 2.5 hr.
# [12] = system: Escherichia coli 51A129 beta-lactamase; experiment: as above; format: biochemical; conditions: Ampicillin 33 μM, pH 6.5, 37° C.
# Description: as §3, §4, §5
# [13] = system: Klebsiella pneumoniae 53A129 beta-lactamase; experiment: as above; format: biochemical; conditions: Ampicillin 33 μM, pH 6.5, 37° C.
# Description: as §3, §4, §5
# [14] = biological target: T1, Pseudomonas aeruginosa 52A104 beta-lactamase (Pseudomonas aeruginosa, UniProt P24735); experiment: as above; format: biochemical; conditions: pH 6.5, 37° C.
# T1 construct: cell-free sonicate of penicillin G-induced culture
# Description: as §3, §4, §5
# [15] = biological target: T2, Staphylococcus aureus 01A400 beta-lactamase (Staphylococcus aureus, UniProt P00807); experiment: as above; format: biochemical; conditions: pH 6.5, 37° C.; for % Inhibition Beta-Lactam Hydrolysis: listed as R = C6 H5, n = 0
# T2 construct: Cell-free extracts were prepared by sonic treatment; endogenous in cells; host or cells: Staphylococcus aureus 01A400, penicillin G-induced culture, cell-free extract (French press)
# Description: as §3, §4, §5
# [16] = 1:1 mixture with cefazolin, resistant variant
# [17] = 1:1 mixture with ampicillin, resistant variant
# [18] = Staphylococcus aureus, 5, alone, read-out: MIC Alone
# [19] = pH 6.5, Ampicillin 33 μM, inhibitor 66 μM
# Chain of Enterobacter cloacae 67B009 beta-lactamase (P05364 21-381): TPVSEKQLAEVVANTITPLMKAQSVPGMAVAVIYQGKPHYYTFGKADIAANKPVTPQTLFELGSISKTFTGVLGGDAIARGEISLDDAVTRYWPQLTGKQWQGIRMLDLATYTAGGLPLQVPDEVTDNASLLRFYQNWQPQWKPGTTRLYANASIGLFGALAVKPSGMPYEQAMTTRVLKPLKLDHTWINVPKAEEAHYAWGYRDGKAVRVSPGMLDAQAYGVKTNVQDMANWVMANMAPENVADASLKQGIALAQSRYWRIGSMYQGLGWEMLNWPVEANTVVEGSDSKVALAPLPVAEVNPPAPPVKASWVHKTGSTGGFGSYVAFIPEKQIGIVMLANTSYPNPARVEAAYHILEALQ
# T2 sequence (P00807 25-281): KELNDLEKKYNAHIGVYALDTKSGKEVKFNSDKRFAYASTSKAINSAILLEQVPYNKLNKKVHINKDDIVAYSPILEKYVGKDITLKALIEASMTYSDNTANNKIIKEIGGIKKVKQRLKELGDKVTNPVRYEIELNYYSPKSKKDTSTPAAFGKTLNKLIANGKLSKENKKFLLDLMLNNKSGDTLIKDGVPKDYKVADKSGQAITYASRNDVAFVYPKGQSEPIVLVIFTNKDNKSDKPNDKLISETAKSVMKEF
# T1 sequence (P24735 27-397): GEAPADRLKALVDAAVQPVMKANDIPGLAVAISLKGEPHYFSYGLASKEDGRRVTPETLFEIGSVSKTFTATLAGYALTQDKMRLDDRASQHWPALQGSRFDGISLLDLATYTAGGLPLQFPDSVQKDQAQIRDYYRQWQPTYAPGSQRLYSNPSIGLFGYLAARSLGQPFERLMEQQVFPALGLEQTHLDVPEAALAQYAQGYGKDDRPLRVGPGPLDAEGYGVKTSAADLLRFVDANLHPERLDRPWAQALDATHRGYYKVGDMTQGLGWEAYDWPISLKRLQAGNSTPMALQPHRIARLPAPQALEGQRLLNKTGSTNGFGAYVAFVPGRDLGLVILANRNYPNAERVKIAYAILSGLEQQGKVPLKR
smiles,measurement,setting,value
CC1(C)S[C@@H]2[C@H](OS(=O)(=O)Cc3ccccc3)C(=O)N2[C@H]1C(=O)O [Sodium 6-Beta-(Alpha-Toluenesulfonyloxy)penicillanate],MIC with Ampicillin,[1],100 µg/mL
same,Response with Ampicillin,[1],Synergy
same,MIC with Cefazolin,[1]; 1:1 mixture with cefazolin,100 µg/mL
same,Response with Cefazolin,[1]; 1:1 mixture with cefazolin,Synergy
same,MIC,[1],> 200 µg/mL
same,MIC with Ampicillin,[2]; resistant variant,> 100 µg/mL
same,MIC with Cefazolin,[2]; [16],100 µg/mL and 50 µg/mL
same,MIC,[2],> 200 µg/mL
same,MIC with Ampicillin,[3]; [17],> 100 µg/mL
same,MIC with Cefazolin,[3]; resistant variant,12.5 µg/mL and 6.25 µg/mL
same,MIC,[3],> 200 µg/mL
same,MIC with Ampicillin,[4]; 1:1 mixture with ampicillin,3.12 µg/mL and 1.56 µg/mL
same,MIC,[4],> 200 µg/mL
same,MIC with Ampicillin,[5],> 100 µg/mL
same,Response with Ampicillin,[5],Antagonism
same,MIC with Cefazolin,[5],0.78 µg/mL
same,Response with Cefazolin,[5],Additive
same,MIC,[5],> 200 µg/mL
same,MIC with Ampicillin,[6],3.12 µg/mL
same,MIC with Cefazolin,[6],50 µg/mL
same,Response with Cefazolin,[6],Synergy
same,MIC,[6],> 200 µg/mL
same,MIC with Ampicillin,[7],> 100 µg/mL
same,MIC with Cefazolin,[7],> 100 µg/mL
same,MIC,[7],> 200 µg/mL
same,MIC with Cefazolin,[8]; 1:1 mixture with cefazolin,> 100 µg/mL
same,MIC,[8],> 200 µg/mL
same,Response with Ampicillin,[9]; 1:1 mixture with ampicillin,Additive
same,MIC with Ampicillin,[10],≤ 0.2 µg/mL
same,MIC,"[10]; Staphylococcus aureus, 5, 18 h, read-out: MIC Alone, alone",6.25 µg/mL
same,MIC,[10]; [18],100 µg/mL
same,inhibition at 16.5 µM,"[11]; pH 6.5, Cephalexin 33 μM",100%
same,inhibition at 16.5 µM,"[11]; pH 6.5, Cephaloridine 4 μM",100%
same,inhibition at 4 µM,"[11]; pH 6.5, Cephaloridine 33 μM, inhibitor 4 μM",93.7%
same,inhibition at 16.5 µM,"[11]; pH 6.5, Cephaloridine 33 μM",98.3%
same,inhibition at 16.5 µM,"[11]; pH 6.5, Penicillin G 33 μM",96%
same,inhibition at 66 µM,"[11]; pH 6.5, Penicillin G 33 μM",96%
same,% Inhibition Beta-Lactam Hydrolysis,[12]; inhibitor 16.5 μM,14.0%
same,% Inhibition Beta-Lactam Hydrolysis,[12]; inhibitor 66 μM,15.8%
same,% Inhibition Beta-Lactam Hydrolysis,[13]; inhibitor 16.5 μM,3.0%
same,% Inhibition Beta-Lactam Hydrolysis,[13]; inhibitor 66 μM,0%
same,inhibition at 16.5 µM,"[14]; Cephaloridine 16.5 μM, inhibitor 16.5 μM",92.6%
same,inhibition at 66 µM,"[14]; Penicillin G 33 μM, inhibitor 66 μM",100%
same,% Inhibition Beta-Lactam Hydrolysis,"[15]; Ampicillin 33 μM, inhibitor 16.5 μM",40.3% and 78% and 63.3%
same,% Inhibition Beta-Lactam Hydrolysis,"[15]; Ampicillin 33 μM, inhibitor 66 μM",91.4% and 91%
same,inhibition at 66 µM,[15]; [19],85%
same,inhibition at 66 µM,"[15]; pH 6.5, Preincubation experiment (10 minutes), Ampicillin 33 μM, inhibitor 66 μM",87.2%
"CC1(C)[C@H](C(=O)O)N2C(=O)[C@@H](OS(=O)(=O)Cc3ccccc3)[C@H]2S1(=O)=O [R = C6 H5, n = 2, Sodium 6-beta-(alpha-Toluene-sulfonyloxy)penicillanate Sulfone]",inhibition at 66 µM,"[11]; pH 6.5, Penicillin G 33 μM",0%
same,inhibition at 66 µM,[15]; [19],36.2%
"CC1(C)S[C@@H]2[C@H](OS(C)(=O)=O)C(=O)N2[C@H]1C(=O)O [Sodium Methanesulfonyloxypenicillanate, Sodium 6-beta-(Methanesulfonyloxy)penicillanate]",MIC with Ampicillin,[1],100 µg/mL
same,Response with Ampicillin,[1],Synergy
same,MIC with Cefazolin,[1]; 1:1 mixture with cefazolin,> 100 µg/mL
same,MIC,[1],> 200 µg/mL
same,MIC with Ampicillin,[2]; resistant variant,> 100 µg/mL
same,MIC with Cefazolin,[2]; [16],50 µg/mL
same,Response with Cefazolin,[2]; [16],Antagonism
same,MIC,[2],> 200 µg/mL
same,MIC with Ampicillin,[3]; [17],100 µg/mL
same,Response with Ampicillin,[3]; [17],Additive
same,MIC with Cefazolin,[3]; resistant variant,6.25 µg/mL
same,MIC,[3],> 200 µg/mL
same,MIC with Ampicillin,[4]; 1:1 mixture with ampicillin,3.12 µg/mL
same,Response with Ampicillin,[4]; 1:1 mixture with ampicillin,Antagonism
same,MIC,[4],> 200 µg/mL
same,MIC with Ampicillin,[5],100 µg/mL
same,Response with Ampicillin,[5],Antagonism
same,MIC with Cefazolin,[5],1.56 µg/mL
same,Response with Cefazolin,[5],No effect
same,MIC,[5],> 200 µg/mL
same,MIC with Ampicillin,[6],1.56 µg/mL
same,MIC with Cefazolin,[6],25 µg/mL
same,Response with Cefazolin,[6],Synergy
same,MIC,[6],> 200 µg/mL
same,MIC with Ampicillin,[7],> 100 µg/mL
same,MIC with Cefazolin,[7],> 100 µg/mL
same,MIC,[7],> 200 µg/mL
same,MIC with Ampicillin,[8]; 1:1 mixture with ampicillin,25 µg/mL
same,Response with Ampicillin,[8]; 1:1 mixture with ampicillin,Antagonism
same,MIC with Cefazolin,[8]; 1:1 mixture with cefazolin,100 µg/mL
same,Response with Cefazolin,[8]; 1:1 mixture with cefazolin,Synergy
same,MIC,[8],> 200 µg/mL
same,MIC with Ampicillin,[9]; 1:1 mixture with ampicillin,3.12 µg/mL
same,Response with Ampicillin,[9]; 1:1 mixture with ampicillin,Additive
same,MIC with Cefazolin,[9]; 1:1 mixture with cefazolin,≥ 0.2 µg/mL
same,Response with Cefazolin,[9]; 1:1 mixture with cefazolin,Synergy
same,MIC,"[9]; Staphylococcus aureus, 18 h, read-out: MIC Alone, alone, Table II gives two separate tests",6.25 µg/mL
same,MIC with Ampicillin,[10],≤ 0.2 µg/mL
same,MIC,[10]; [18],12.5 µg/mL
same,inhibition at 66 µM,"[11]; pH 6.5, Penicillin G 33 μM",66.7%
same,% Inhibition Beta-Lactam Hydrolysis,[12]; inhibitor 66 μM,4.4%
same,% Inhibition Beta-Lactam Hydrolysis,[13]; inhibitor 16.5 μM,0%
same,inhibition at 16.5 µM,"[15]; pH 6.5, Ampicillin 33 μM, inhibitor 16.5 μM",100%
same,inhibition at 66 µM,[15]; [19],100%
